These are literature values, as cited in patent US20190076442A1, “PRESERVATIVE FREE PHARMACEUTICAL COMPOSITION FOR OPHTHALMIC ADMINISTRATION CONTAINING BIMATOPROST AND TIMOLOL” (PHARMATHEN S.A., priority 2016, published 2019).

The structures appear in SMILES notation. Structures can show the parent of a compound that is named as a salt.

Consider `CCNC(=O)CCC/C=C\C[C@@H]1[C@@H](/C=C/[C@@H](O)CCc2ccccc2)[C@H](O)C[C@@H]1O` [Bimatoprost], for which the “Solubility in ethanol (ethyl alcohol)” value was “very soluble” and the Solubility in water entry is listed as “slightly soluble”.

As to `CC(C)(C)NC[C@H](O)COc1nsnc1N1CCOCC1` [Timolol maleate], the “Solubility in ethanol (ethyl alcohol)” value is listed as “soluble” and the Solubility in water result is “soluble”. In addition, the Solubility in chloroform entry (chloroform) was “sparingly soluble”. The Solubility in cyclohexane result (cyclohexane) is “insoluble”. For the same molecule, the Solubility in ether entry (ether) is “insoluble”. Also, the Solubility in methanol result (methanol) is reported as “soluble”. Moreover, the “Solubility in propylene glycol” value (propylene glycol) is recorded as “sparingly soluble”.
